Assay results taken from PubChem BioAssay (NCI).
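In this assay, cells in 96-well plates receive the compound at five concentrations for 48 hours. Endpoints are linearly interpolated between the surrounding concentrations. Here, GI50 denotes the concentration required for 50% inhibition of growth. TGI marks complete inhibition of growth.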

Columns and labels:
Experiment in all cases: inhibition of tumour cell growth, NCI panel, 48 h
SW-620 colon = test system: SW-620 colon
TK-10 renal = test system: TK-10 renal
UACC-257 melanoma = test system: UACC-257 melanoma
NCI-H23 lung = test system: NCI-H23 lung
HS 578T breast = test system: HS 578T breast
CAKI-1 renal = test system: CAKI-1 renal
SK-MEL-2 melanoma = test system: SK-MEL-2 melanoma
NCI/ADR-RES ovarian = test system: NCI/ADR-RES ovarian
OVCAR-5 ovarian = test system: OVCAR-5 ovarian
BT-549 breast = test system: BT-549 breast
RPMI-8226 leukemia = test system: RPMI-8226 leukemia
SK-OV-3 ovarian = test system: SK-OV-3 ovarian
NCI-H460 lung = test system: NCI-H460 lung
OVCAR-8 ovarian = test system: OVCAR-8 ovarian
NCI-H522 lung = test system: NCI-H522 lung
SK-MEL-28 melanoma = test system: SK-MEL-28 melanoma
SK-MEL-5 melanoma = test system: SK-MEL-5 melanoma
K-562 leukemia = test system: K-562 leukemia
ACHN renal = test system: ACHN renal
MDA-MB-435 = test system: MDA-MB-435
SNB-19 CNS = test system: SNB-19 CNS
U251 CNS = test system: U251 CNS
HCT-15 colon = test system: HCT-15 colon
HOP-62 NSCLC = test system: HOP-62 NSCLC
CCRF-CEM leukemia = test system: CCRF-CEM leukemia
786-0 renal = test system: 786-0 renal
OVCAR-4 ovarian = test system: OVCAR-4 ovarian
MDA-MB-231 breast = test system: MDA-MB-231 breast
SN12C renal = test system: SN12C renal
UO-31 renal = test system: UO-31 renal
NCI-H226 lung = test system: NCI-H226 lung
MOLT-4 leukemia = test system: MOLT-4 leukemia
SNB-75 CNS = test system: SNB-75 CNS
LOX IMVI melanoma = test system: LOX IMVI melanoma
KM12 colon = test system: KM12 colon
HT29 colon = test system: HT29 colon
EKVX NSCLC = test system: EKVX NSCLC
SF-295 CNS = test system: SF-295 CNS
DU-145 prostate = test system: DU-145 prostate
IGROV1 ovarian = test system: IGROV1 ovarian
SF-539 CNS = test system: SF-539 CNS
MALME-3M melanoma = test system: MALME-3M melanoma
RXF 393 renal = test system: RXF 393 renal
T-47D breast = test system: T-47D breast
A498 renal = test system: A498 renal
SR leukemia = test system: SR leukemia
A549 NSCLC = test system: A549 NSCLC
UACC-62 melanoma = test system: UACC-62 melanoma
COLO 205 colon = test system: COLO 205 colon
HL-60(TB) leukemia = test system: HL-60(TB) leukemia
PC-3 prostate = test system: PC-3 prostate
HOP-92 NSCLC = test system: HOP-92 NSCLC
HCC-2998 colon = test system: HCC-2998 colon
M14 melanoma = test system: M14 melanoma
HCT-116 colon = test system: HCT-116 colon
SF-268 CNS = test system: SF-268 CNS
MCF7 breast = test system: MCF7 breast
OVCAR-3 ovarian = test system: OVCAR-3 ovarian

## CCN1CCN(c2ccc(NC(=O)Nc3ccc4c(ccn4-c4ccnc(C(=O)NC)c4)c3)cc2C(F)(F)F)CC1
SW-620 colon
  GI50: 2500 nM
  TGI: 4.79 µM
TK-10 renal
  GI50: 2.68 µM
  TGI: 4.82 µM
UACC-257 melanoma
  GI50: 2450 nM
  TGI: 4.68 µM
NCI-H23 lung
  GI50: 2080 nM
  TGI: 4.23 µM
HS 578T breast
  GI50: 2500 nM
  TGI: 13.7 µM
CAKI-1 renal
  GI50: 2.68 µM
  TGI: 5.07 µM
SK-MEL-2 melanoma
  GI50: 12.6 µM
  TGI: > 14.3 µM
NCI/ADR-RES ovarian
  GI50: 3080 nM
  TGI: 7.44 µM
OVCAR-5 ovarian
  GI50: 11.4 µM
  TGI: > 14.3 µM
BT-549 breast
  GI50: > 14.3 µM
  TGI: > 14.3 µM
RPMI-8226 leukemia
  GI50: 1570 nM
  TGI: > 14.3 µM
SK-OV-3 ovarian
  GI50: > 14.3 µM
  TGI: > 14.3 µM
NCI-H460 lung
  GI50: 2590 nM
  TGI: 5.03 µM
OVCAR-8 ovarian
  GI50: 2620 nM
  TGI: 5.49 µM
NCI-H522 lung
  GI50: > 14.3 µM
  TGI: > 14.3 µM
SK-MEL-28 melanoma
  GI50: 2280 nM
  TGI: 4.37 µM
SK-MEL-5 melanoma
  GI50: 2520 nM
  TGI: 4.56 µM
K-562 leukemia
  GI50: 793 nM
  TGI: 4.14 µM
ACHN renal
  GI50: 2560 nM
  TGI: 4.55 µM
MDA-MB-435
  GI50: 2460 nM
  TGI: 4.56 µM
SNB-19 CNS
  GI50: 2360 nM
  TGI: 4.81 µM
U251 CNS
  GI50: 1640 nM
  TGI: 3.53 µM
HCT-15 colon
  GI50: 1040 nM
  TGI: 3.35 µM
HOP-62 NSCLC
  GI50: 2.13 µM
  TGI: 4.3 µM
CCRF-CEM leukemia
  GI50: 3770 nM
  TGI: > 14.3 µM
786-0 renal
  GI50: 1730 nM
  TGI: 3.63 µM
OVCAR-4 ovarian
  GI50: 2650 nM
  TGI: 5.86 µM
MDA-MB-231 breast
  GI50: 2530 nM
  TGI: 5.01 µM
SN12C renal
  GI50: > 14.3 µM
  TGI: > 14.3 µM
UO-31 renal
  GI50: 2230 nM
  TGI: 4.21 µM
NCI-H226 lung
  GI50: > 14.3 µM
  TGI: > 14.3 µM
MOLT-4 leukemia
  GI50: 1790 nM
  TGI: 9.46 µM
SNB-75 CNS
  GI50: 5.22 µM
  TGI: > 14.3 µM
LOX IMVI melanoma
  GI50: 2210 nM
  TGI: 4.22 µM
KM12 colon
  GI50: 741 nM
  TGI: 2.85 µM
HT29 colon
  GI50: 1070 nM
  TGI: 3.22 µM
EKVX NSCLC
  GI50: 2270 nM
  TGI: 4.47 µM
SF-295 CNS
  GI50: 0.925 µM
  TGI: 2.85 µM
DU-145 prostate
  GI50: 2590 nM
  TGI: 4.88 µM
IGROV1 ovarian
  GI50: 2670 nM
  TGI: 5.61 µM
SF-539 CNS
  GI50: 1630 nM
  TGI: 3.48 µM
MALME-3M melanoma
  GI50: 2070 nM
  TGI: 4.22 µM
RXF 393 renal
  GI50: 1420 nM
  TGI: 3.58 µM
T-47D breast
  GI50: > 14.3 µM
  TGI: > 14.3 µM
A498 renal
  GI50: 13.5 µM
  TGI: > 14.3 µM
SR leukemia
  GI50: 644 nM
  TGI: 3.22 µM
A549 NSCLC
  GI50: 2280 nM
  TGI: 4.5 µM
UACC-62 melanoma
  GI50: 2340 nM
  TGI: 4.55 µM
COLO 205 colon
  GI50: > 14.3 µM
  TGI: > 14.3 µM
HL-60(TB) leukemia
  GI50: 2660 nM
  TGI: 6.11 µM
PC-3 prostate
  GI50: 2340 nM
  TGI: 7.38 µM
HOP-92 NSCLC
  GI50: 1550 nM
  TGI: 3.44 µM
HCC-2998 colon
  GI50: 2470 nM
  TGI: 4.54 µM
M14 melanoma
  GI50: 2350 nM
  TGI: 4.36 µM
HCT-116 colon
  GI50: 2000 nM
  TGI: 3.88 µM
SF-268 CNS
  GI50: 2.53 µM
  TGI: 5.66 µM
MCF7 breast
  GI50: 2150 nM
  TGI: 5.05 µM

## CCN(CC)CCn1c2ccc(O)cc2c2sc3cc(OC)ccc3c(=O)c21
SW-620 colon
  GI50: 675 nM
  TGI: 2.11 µM
TK-10 renal
  GI50: 9.04 µM
  TGI: 24.7 µM
UACC-257 melanoma
  GI50: 2100 nM
  TGI: 4.68 µM
NCI-H23 lung
  GI50: 1560 nM
  TGI: 3.18 µM
HS 578T breast
  GI50: 1950 nM
  TGI: 4.59 µM
CAKI-1 renal
  GI50: 3.73 µM
  TGI: 17 µM
SK-MEL-2 melanoma
  GI50: 9.15 µM
  TGI: 25.1 µM
NCI/ADR-RES ovarian
  GI50: 1230 nM
  TGI: 4.01 µM
OVCAR-5 ovarian
  GI50: 2.22 µM
  TGI: 4.68 µM
BT-549 breast
  GI50: 6.09 µM
  TGI: 19.9 µM
RPMI-8226 leukemia
  GI50: 1950 nM
  TGI: 4.88 µM
SK-OV-3 ovarian
  GI50: 13.4 µM
  TGI: 27.2 µM
NCI-H460 lung
  GI50: 1220 nM
  TGI: 2.66 µM
OVCAR-8 ovarian
  GI50: 2100 nM
  TGI: 7.26 µM
SK-MEL-28 melanoma
  GI50: 1800 nM
  TGI: 3.29 µM
SK-MEL-5 melanoma
  GI50: 1740 nM
  TGI: 3.14 µM
K-562 leukemia
  GI50: 1240 nM
  TGI: 2.81 µM
ACHN renal
  GI50: 1130 nM
  TGI: 2.44 µM
MDA-MB-435
  GI50: 1640 nM
  TGI: 3.1 µM
SNB-19 CNS
  GI50: 1510 nM
  TGI: 3.41 µM
U251 CNS
  GI50: 1580 nM
  TGI: 3.34 µM
HCT-15 colon
  GI50: 1200 nM
  TGI: 3.28 µM
HOP-62 NSCLC
  GI50: 6.03 µM
  TGI: 23.7 µM
CCRF-CEM leukemia
  GI50: 1090 nM
  TGI: 4.5 µM
786-0 renal
  GI50: 1390 nM
  TGI: 2.79 µM
OVCAR-4 ovarian
  GI50: 1810 nM
  TGI: 4.04 µM
MDA-MB-231 breast
  GI50: 1610 nM
  TGI: 3.71 µM
SN12C renal
  GI50: 5.83 µM
  TGI: 21.2 µM
OVCAR-3 ovarian
  GI50: 2190 nM
  TGI: 4.88 µM
UO-31 renal
  GI50: 1900 nM
  TGI: 11.5 µM
NCI-H226 lung
  GI50: 10.4 µM
  TGI: 24.2 µM
MOLT-4 leukemia
  GI50: 389 nM
  TGI: 1.71 µM
SNB-75 CNS
  GI50: 2.39 µM
  TGI: 17.4 µM
LOX IMVI melanoma
  GI50: 1210 nM
  TGI: 2.59 µM
KM12 colon
  GI50: 1840 nM
  TGI: 3.72 µM
HT29 colon
  GI50: 1750 nM
  TGI: 4.29 µM
EKVX NSCLC
  GI50: 1670 nM
  TGI: 3.5 µM
SF-295 CNS
  GI50: 5.35 µM
  TGI: 18.8 µM
DU-145 prostate
  GI50: 1710 nM
  TGI: 3.51 µM
IGROV1 ovarian
  GI50: 1590 nM
  TGI: 4.52 µM
SF-539 CNS
  GI50: 1760 nM
  TGI: 3.2 µM
MALME-3M melanoma
  GI50: 1870 nM
  TGI: 4.01 µM
RXF 393 renal
  GI50: 1300 nM
  TGI: 2.68 µM
T-47D breast
  GI50: 14.2 µM
  TGI: 37.9 µM
A498 renal
  GI50: 3.08 µM
  TGI: 16.5 µM
SR leukemia
  GI50: 1110 nM
  TGI: 3.15 µM
A549 NSCLC
  GI50: 1630 nM
  TGI: 4.3 µM
UACC-62 melanoma
  GI50: 1890 nM
  TGI: 4.26 µM
COLO 205 colon
  GI50: 3.08 µM
  TGI: 17.9 µM
HL-60(TB) leukemia
  GI50: 1720 nM
  TGI: 3.55 µM
PC-3 prostate
  GI50: 1820 nM
  TGI: 5.09 µM
HOP-92 NSCLC
  GI50: 2580 nM
  TGI: 17 µM
HCC-2998 colon
  GI50: 1470 nM
  TGI: 2.91 µM
M14 melanoma
  GI50: 1640 nM
  TGI: 3.31 µM
HCT-116 colon
  GI50: 1070 nM
  TGI: 2.38 µM
SF-268 CNS
  GI50: 7.34 µM
  TGI: 24.5 µM
MCF7 breast
  GI50: 1180 nM
  TGI: 2.79 µM
